Measured values: patent US4937232A, “Inhibition of protein kinase C by long-chain bases” (priority 1988, dated 1990)

How the values were obtained:
[1] = system: HL-60 cells; assay: Acid phosphatase activities of suspended and attached HL-60 cells; format: cell-based, human
Experimental: Cells were centrifuged at 600 g for 3 min, and added at 1×10^5 cells per well in 12-well culture dishes. Medium, PMA, and long-chain bases (prepared as the 1:1 molar complex with fatty acid-free bovine serum albumin) at the indicated concentrations were added for a total volume of 2.0 ml. After the desired times, the cells in suspension were counted and checked for viability (trypan blue exclusion) with a hemacytometer. The attached cells were quantitated by measuring DNA content according to the method of West et al (Anal. Biochem., 147, 289-295, 1985) and by assaying for acid phosphatase according to the method of Schnyder (J. Exp. Med., 148, 434-445, 1978).

[2] = target: T1, NADPH-oxidase (Homo sapiens, UniProt P04839); assay: NADPH-oxidase activity in isolated neutrophil membranes; format: biochemical
T1 construct: endogenous in cells
Experimental: Superoxide production was also measured spectrophotometrically in isolated membranes (see below) by the method of Curnutte et al (N. Eng. J. Med. 293, 628-632) also using superoxide dismutase inhibitable reduction of cytochrome c. Assays utilized paired cuvettes with the reference cuvette containing 30 μg/ml superoxide dismutase. Both cuvettes also contained 65 mM potassium phosphate pH 7.0, 125 mM sucrose, 81 μM cytochrome c, and 0.1 mg of membrane protein. The reaction was initiated with 200 μM (final) NADPH in both cuvettes. The treatments are as described in Table I. All spectrophotometric measurements were carried out using a Cary […] spectrophotometer.
Neutrophil membranes activated for superoxide production were prepared as described previously (Hohn, J. Clin. Invest. 55, 707-713, 1975). Neutrophils (10^8) were suspended in PBS-glucose and incubated in a shaking waterbath at 37° C. Cells were activated by the addition of 10 μg PMA/ml and allowed to incubate 5 min. The reaction was stopped by adding an equal volume of ice-cold PBS. The cells were centrifuged at 400×g for 4 min at 4° C. and resuspended in PBS-glucose containing 120 μM FAD. The cells were lysed by homogenization with a teflon-glass homogenizer. The homgenate was centrifuged at 250×g for 10 min. to remove unlysed cells. […]

[3] = 8 nM PMA, 1 μM sphinganine, 24 h
[4] = 8 nM PMA, 1 μM sphinganine, 72 h
[5] = 8 nM PMA, 2.5 μM sphinganine, 24 h
[6] = 8 nM PMA, 2.5 μM sphinganine, 72 h
[7] = 8 nM PMA, 5 μM sphinganine, 24 h
[8] = 8 nM PMA, 5 μM sphinganine, 72 h
[9] = No PMA, 2.5 μM sphinganine, 24 h
[10] = No PMA, 2.5 μM sphinganine, 72 h

Question: What does the source list for `CCCCCCCCCCCCCCC[C@@H](O)[C@@H](N)CO` (relative stereo) [Sphinganine, erythro-dihydrosphingosine]?
Answer: Acid phosphatase activity, Adherent [1, 3]: 0.44 ± 0.11 nmol/h/dish; Acid phosphatase activity, Suspended [1, 3]: 0.22 ± 0.07 nmol/h/dish; Adherence (% of total) [1, 3]: 67 % of total; Acid phosphatase activity, Adherent [1, 4]: 2.95 ± 0.62 nmol/h/dish; Acid phosphatase activity, Adherent (%) [1, 4]: 98%; Acid phosphatase activity, Suspended [1, 4]: 0.05 ± 0.01 nmol/h/dish; Acid phosphatase activity, Adherent [1, 5]: 0.30 ± 0.04 nmol/h/dish; Acid phosphatase activity, Suspended [1, 5]: 0.49 ± 0.28 nmol/h/dish; Adherence (% of total) [1, 5]: 38 % of total; Acid phosphatase activity, Adherent [1, 6]: 3.10 ± 0.30 nmol/h/dish; Acid phosphatase activity, Adherent (%) [1, 6]: 98%; Acid phosphatase activity, Suspended [1, 6]: 0.06 nmol/h/dish; Acid phosphatase activity, Adherent [1, 7]: 0.14 ± 0.04 nmol/h/dish; Adherence (% of total) [1, 7]: 21 % of total; Acid phosphatase activity, Adherent [1, 8]: 0.82 ± 0.38 nmol/h/dish; Acid phosphatase activity, Adherent (%) [1, 8]: 87%; Acid phosphatase activity, Suspended [1, 8]: 0.12 ± 0.08 nmol/h/dish; Acid phosphatase activity, Adherent ([1]; No PMA, 1 μM sphinganine, 24 h): 0.06 ± 0.03 nmol/h/dish; Acid phosphatase activity, Suspended ([1]; No PMA, 1 μM sphinganine, 24 h): 1.53 ± 0.01 nmol/h/dish; Adherence (% of total) ([1]; No PMA, 1 μM sphinganine, 24 h): 4 % of total; Acid phosphatase activity, Adherent ([1]; No PMA, 1 μM sphinganine, 72 h): 0.05 ± 0.03 nmol/h/dish; Acid phosphatase activity, Adherent (%) ([1]; No PMA, 1 μM sphinganine, 72 h): 2%; Acid phosphatase activity, Suspended ([1]; No PMA, 1 μM sphinganine, 72 h): 2.77 ± 0.25 nmol/h/dish; Acid phosphatase activity, Adherent [1, 9]: 0.06 ± 0.02 nmol/h/dish; Acid phosphatase activity, Suspended [1, 9]: 1.25 ± 0.16 nmol/h/dish; Adherence (% of total) [1, 9]: 5 % of total; Acid phosphatase activity, Adherent [1, 10]: 0.05 ± 0.02 nmol/h/dish; Acid phosphatase activity, Adherent (%) [1, 10]: 2%; Acid phosphatase activity, Suspended [1, 10]: 2.35 ± 0.11 nmol/h/dish; Acid phosphatase activity, Adherent ([1]; No PMA, 5 μM sphinganine, 24 h): 0.04 ± 0.01 nmol/h/dish; Acid phosphatase activity, Suspended ([1]; No PMA, 5 μM sphinganine, 24 h): 0.91 ± 0.16 nmol/h/dish; Adherence (% of total) ([1]; No PMA, 5 μM sphinganine, 24 h): 4 % of total; Acid phosphatase activity, Adherent ([1]; No PMA, 5 μM sphinganine, 72 h): 0.04 ± 0.01 nmol/h/dish; Acid phosphatase activity, Adherent (%) ([1]; No PMA, 5 μM sphinganine, 72 h): 14%; Acid phosphatase activity, Suspended ([1]; No PMA, 5 μM sphinganine, 72 h): 0.24 ± 0.01 nmol/h/dish; Cytochrome c Reduction ([2]; 18 μM sphinganine, membranes from PMA-pretreated cells): 27 nmols/min/mg/protein; inhibition of NADPH-dependent superoxide generation in isolated membranes ([2]; concentrations which inhibited the cellular response): No inhibition
